The subject of one series is murine and human PSCs. Kind of series: Dose response assays, statements over murine and human PSCs. The class given is cell-based. Particulars: for IC50: iPSC, 48 h, read-out: IC50 values, range over murine iPSC line, two murine ESC lines and human iPSC line. On the procedure:
(§1) Serial dilutions of DMSO stock solutions of PluriSIn #1 (Sigma-Aldrich, catalog number SML0682) or one of small molecules SM1-SM10, were prepared from 20 mM stock solutions with cell culture medium. Murine PSCs were dissociated with 0.05% trypsin-EDTA, seeded on 0.1% gelatin-coated 96-well plates with a density of 5000 cells/well and cultured in maintenance medium supplemented with 1000 U/ml of mLIF. After 1 day, cells were incubated with 40 μM PluriSIn #1 and derivatives for 72 h or with 0.01-25 μM SMs for 48 h, respectively. For treatment of corresponding PSC-derived CMs with SMs, puromycin-selected miPSC-CMs from day 14 of differentiation were dissociated with 0.25% trypsin-EDTA as described above and plated on 96-well plates (5×10^4 cells/well) which were pre-coated with 5 μg/ml fibronectin (PromoCell, Heidelberg, Germany). After culturing miPSC-CMs with 8 μg/ml puromycin for 2 more days, they were incubated in differentiation medium supplemented with 0.1-100 μM of SMs for 48-72 h. Following small molecule treatment, cell viability was determined with PrestoBlue cell viability reagent (Life Technologies). To this end, cells were washed with PBS (with calcium and magnesium, Life Technologies) and incubated with PrestoBlue reagent diluted in cell culture medium for 40 min at 37° C.
(§2) Fluorescence intensities correlating with the number of viable cells in the wells were measured in black flat-bottom 96-well plates (Greiner Bio-One, Kremsmünster, Austria) with a GeniosPro microplate reader (Tecan, Männedorf, Schweiz).
IC50 values were determined by regression analysis of dose-response curves upon logarithmic transformation. Microscopic images of PSCs were taken with a Zeiss Axiovert 100 inverted microscope and GFP images of CMs were captured with a Zeiss Axiovert 200M fluorescence microscope (both Carl Zeiss, Oberkochen, Germany) and analyzed with Zeiss Axiovision 4.5 software (Carl Zeiss).
In order to quantify compound cytotoxicity, dose response assays were performed by treating PSCs with compound concentrations between nontoxic 0.01 μM and PSC-eliminating 10 μM for 48 h. Murine iPSCs αPIG-AT25, embryonic stem cell lines αPIG44-D3 and R1, and human induced pluripotent stem cell (hiPSC) line NP0014-C6 were used. Cell culture and dose response assays were performed as described above.

Series [1] can be described thus: Cell viability (PrestoBlue) of miPSC-derived cardiomyocytes. The class given is cell-based, murine. Conditions: mouse, αPIG-AT25 miPSC-derived cardiomyocytes (puromycin-selected), 10 μM, 72 h of exposure. As for the experimental part: The differentiation of transgenic mPSCs was initiated in mass cultures as briefly described below. One million cells were transferred per non-adhering 10 cm dish with 14 ml differentiation medium composed of Iscove's Modified Dulbecco's Medium (IMDM) with GlutaMAX (Life Technologies) supplemented with 20% FBS, 1×NEAA and 100 μM β-ME. Embryoid bodies (EBs) from day 2 of differentiation were transferred in a 250 ml spinner flask (CELLSPIN 250, Integra Biosciences, Fernwald, Germany) with a density of 3×10^4 EBs per 200 ml of differentiation medium. On the first 2 days of differentiation medium was supplemented with 50 μg/ml L-ascorbic acid phosphate (AA, Wako pure chemicals industry, Japan) in order to promote the development of cardiac cells. For the selection of GFP-expressing CMs, 50 ml of the medium was exchanged with fresh differentiation medium and 8 μg/ml puromycin (Life Technologies) were supplemented on day 9 of differentiation. Two days later, the cardiac clusters were transferred on non-adhering 10 cm dishes with fresh differentiation medium containing 8 μg/ml puromycin. In the further course of differentiation medium was exchanged every 2-3 days. If not otherwise specified, the purification of GFP-positive CMs with puromycin was continued until day 16 of differentiation. For single cell analyses and transfer of PSC-derived CMs on cell culture plates, cardiac clusters were dissociated with 0.25% trypsin-EDTA (Life Technologies) supplemented with 50 U/ml DNase I (AppliChem, Darmstadt, Germany) for 20-30 min at 37° C. The mPSC-derived CMs were filtered through a polyamide membrane with […] pore size (Sefar, Heiden, Switzerland). Cell numbers were determined with a Neubauer hemocytometer and cells were stored on ice until further use.
as §1, §2
The selectivity of compounds was investigated by comparing their cytotoxicity against undifferentiated iPSCs and iPSC-derived CMs. Murine iPSCs αPIG-AT25 were incubated for 48 h with compounds SM1, SM2, SM4, SM5, SM6 and SM8 in concentrations of 0.01 to 10 μM. Cell culture and cardiac differentiation were performed as described above. Experiments were run at least in quadruplicate. The cell viability was determined using PrestoBlue cell viability reagent.
The viability of salicylic diamine-treated CMs was confirmed by 72 h of exposure to concentrations of 0.01 μM, 0.1 μM, 1 μM, 10 μM and 25 μM of compounds SM1, SM2, SM4, SM5, SM6 and SM8.

Another series deals with miPSC-CM monolayers. Kind of series: Cardiomyocyte contraction rate by video imaging. The class given is cell-based, murine. Particulars: 10 μM, 48 h treatment. On the procedure:
The effect of compound treatment on CM beating frequency was determined by video imaging of iPSC-CM monolayers after exposure to SMs. On day 14 of differentiation puromycin-selected miPSC-CMs were plated on a fibronectin-coated multi-well cell culture plate (10^5 cells/cm^2). […] Following SM treatment, cells were washed twice with PBS (with calcium and magnesium) and cultured for 72 h in fresh differentiation medium. […] The number of beats per each video sequence was quantified and the contraction rate was calculated in beats per minute.
Further, the effect of compound treatment on the CM beating frequency was determined by video imaging of iPSC-CM monolayers after exposure to compounds as described above.

Series [2] concerns αPIG-AT25 miPSC-derived cardiomyocytes. Kind of series: Cell viability (PrestoBlue) of miPSC-derived cardiomyocytes. Conditions: 48 h treatment. It counts as cell-based, murine.
Setting [3] is: read-out: decrease of cardiomyocyte viability, in average over SM1, SM4 and SM8.
Where [4] appears, read: read-out: decrease of cardiomyocyte viability.

We go through six molecules from US11299453B2 (Universität zu Köln, priority 2017, dated 2022).

Read-outs that look alike come from different tables or passages of the source.

For orientation: IC50 means the midpoint of a concentration-inhibition curve. For `Oc1c(CNC2CCCC[C@@H]2NCc2cccc(-c3ccccc3)c2O)cccc1-c1ccccc1` (stereo partly drawn) [SM1, (1S,2S)-N,N′-di[(2-hydroxy-3-phenyl)-benzyl]-1,2-diaminocyclo-hexane], the IC50 in the series with murine and human PSCs was 0.1 to 5 µM. The cytotoxicity at 72 h, 10 μM in series [1] (setting [3]) came to 79.8 ± 14.7%.
As to `Oc1c(/C=N/[C@H]2CCCC[C@@H]2NCc2cccc(-c3ccccc3)c2O)cccc1-c1ccccc1` [SM2, (1S,2S)-N-[(2-hydroxy-3-phenyl)-benzyl]-N′-[(2-hydroxy-3-phenyl)-benzylidene]-1,2-diaminocyclohexane], the 50% inhibitory concentration (IC50) with murine and human PSCs is 0.1 to 5 µM. Moreover, the cytotoxicity at 72 h, 10 μM in series [1] (setting [4]) is 18.5 ± 7.06%. Besides, the “decrease of contraction rate of CMs compared to DMSO-treated control” value (from here on “decrease of contraction rate of CMs”) with miPSC-CM monolayers was 61.02±2.67%. Moreover, in series [2], the “microscopic analysis of CM monolayers” value is given as “intact CM monolayers”.
Regarding `Oc1c(CN[C@@H]2CCCC[C@H]2NCc2cccc(-c3ccccc3)c2O)cccc1-c1ccccc1` [SM4, (1R,2R)-N,N′-di[(2-hydroxy-3-phenyl)-benzyl]-1,2-diaminocyclohexane], the IC50 in the series on murine and human PSCs lay in the range of 0.1 to 5 µM. Also, the cytotoxicity at 72 h, 10 μM in series [1] (setting [3]) turned out to be 79.8 ± 14.7%.
Regarding `Oc1c(/C=N/[C@@H]2CCCC[C@H]2NCc2cccc(-c3ccccc3)c2O)cccc1-c1ccccc1` [SM5, (1R,2R)-N-[(2-hydroxy-3-phenyl)-benzyl]-N′-[(2-hydroxy-3-phenyl)-benzylidene]-1,2-diaminocyclohexane], the IC50 in the series on murine and human PSCs fell in the range of 0.1 to 5 µM. Also, the cytotoxicity at 72 h, 10 μM in series [1] (setting [4]) worked out at 14.1 ± 13.8%.
Take `Oc1ccccc1CN[C@@H]1CCCC[C@H]1NCc1ccccc1O` [SM6, (1R,2R)-N,N′-di(2-hydroxybenzyl)-1,2-diaminocyclohexane]: in the series on murine and human PSCs (10 μM, two day-treatment), the “effect on pluripotent stem cells” value is listed as “elimination of pluripotent stem cells”. Besides, the IC50 in the series on murine and human PSCs is 0.1 to 5 µM. The cytotoxicity at 72 h, 10 μM in series [1] (setting [4]) amounted to 11 ± 13.2%. Further, in the series on miPSC-CM monolayers, the “decrease of contraction rate of CMs” value amounted to 24.26±15.71%. Besides, the “microscopic analysis of CM monolayers” value in series [2] is recorded as “intact CM monolayers”.
On to `Oc1c(CNC2CCCC[C@@H]2NCc2cccc(-c3ccccc3)c2O)cccc1-c1ccccc1` (stereo partly drawn) [SM8, (1S,2R)-N,N′-di[(2-hydroxy-3-phenyl)-benzyl]-1,2-diaminocyclohexane], for which the “decrease of contraction rate of CMs” value in the series with miPSC-CM monolayers was determined as 71.37±26.91%. Moreover, in series [2], the “microscopic analysis of CM monolayers” value is on record as “intact CM monolayers”.
